These compounds were tested against T1, HPK1 (Homo sapiens, UniProt Q92918) (assay: HPK1 Kinase Binding Assay). Details: LanthaScreen tracer 222, one hour incubation at 25 °C.
T1 construct: purchased SignalChem M23-11G
T1 sequence (Q92918 1-346 limits assumed): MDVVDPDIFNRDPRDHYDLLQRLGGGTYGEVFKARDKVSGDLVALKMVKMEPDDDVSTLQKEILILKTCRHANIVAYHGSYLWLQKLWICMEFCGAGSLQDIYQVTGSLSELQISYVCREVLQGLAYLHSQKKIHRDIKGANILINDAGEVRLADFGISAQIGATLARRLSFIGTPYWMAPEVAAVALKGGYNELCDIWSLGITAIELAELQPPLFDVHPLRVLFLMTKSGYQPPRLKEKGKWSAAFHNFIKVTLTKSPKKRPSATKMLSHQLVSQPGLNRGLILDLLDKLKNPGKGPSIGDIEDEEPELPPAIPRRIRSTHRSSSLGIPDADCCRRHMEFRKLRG
Experimental: A stock solution of 1 mM test compound was prepared in DMSO. The compound plate was prepared by 3-fold and 11-point serial dilutions. 0.1 µL of the compound in DMSO was transferred from the compound plate to the white 384 well polystyrene plates. The assay buffer contained 50 mM HEPES, pH 7.5, 0.01% Tween-20, 5 mM MgCl2, 0.01% BSA, and 5 mM DTT. 5 µL of 4 nM active HPK1 (SignalChem M23-11G) prepared in the buffer was added to the plate. The enzyme concentration given was based on the given stock concentration reported by the vender. […] After one hour incubation at 25 °C, the plates were read on a PHERAstar FS plate reader (BMG Labtech). Ki values were determined.

Row | Structure (SMILES) | Ki
1 | COc1cccc(F)c1-c1nccc(C(=O)Nc2cc(F)cc(-c3cccnc3)c2N2C[C@H]3C[C@@H]2CN3)n1 [Example 15, N-(2-((1R,4R)-2,5-Diazabicyclo[2.2.1]heptan-2-yl)-5-fluoro-3-(pyridin-3-yl)phenyl)-2-(2-fluoro-6-methoxyphenyl)pyrimidine-4-carboxamide] | < 100 nM
2 | COc1cccc(F)c1-c1nccc(C(=O)Nc2cc(F)cc(Br)c2N2C[C@H]3C[C@@H]2CN3)n1 [Example 13, N-(2-((1R,4R)-2,5-Diazabicyclo[2.2.1]heptan-2-yl)-3-bromo-5-fluorophenyl)-2-(2-fluoro-6-methoxyphenyl)pyrimidine-4-carboxamide] | < 100 nM
3 | COc1cccc(F)c1-c1nccc(C(=O)Nc2ccc(-c3c(C)nn(C)c3C)cc2N2C[C@@H]3C[C@H]2CN3)n1 [Example 27, N-(2-((1S,4S)-2,5-Diazabicyclo[2.2.1]heptan-2-yl)-4-(1,3,5-trimethyl-1H-pyrazol-4-yl)phenyl)-2-(2-fluoro-6-methoxyphenyl)pyrimidine-4-carboxamide] | < 100 nM
4 | COc1cccc(F)c1-c1nccc(C(=O)Nc2ccc(-c3cnccc3C#N)cc2N2CCO[C@H](CC#N)C2)n1 [Example 102, (R)-N-(2-(2-(Cyanomethyl)morpholino)-4-(4-cyanopyridin-3-yl)phenyl)-2-(2-fluoro-6-methoxyphenyl)pyrimidine-4-carboxamide] | < 100 nM
5 | COc1cccc(F)c1-c1nccc(C(=O)Nc2ccc(-c3cnccc3C#N)cc2N2CCN(CCO)CC2)n1 [Example 109, N-(4-(4-Cyanopyridin-3-yl)-2-(4-(2-hydroxyethyl)piperazin-1-yl)phenyl)-2-(2-fluoro-6-methoxyphenyl)pyrimidine-4-carboxamide] | < 100 nM
6 | COc1cccc(F)c1-c1nccc(C(=O)Nc2ccc(-c3cnccc3C#N)cc2N2CC3(CC3)NC[C@H]2CO)n1 [Example 52, (S)-N-(4-(4-Cyanopyridin-3-yl)-2-(6-(hydroxymethyl)-4,7-diazaspiro[2.5]octan-7-yl)phenyl)-2-(2-fluoro-6-methoxyphenyl)pyrimidine-4-carboxamide] | < 100 nM
7 | COc1cccc(F)c1-c1nccc(C(=O)Nc2ccc(-c3cnccc3C#N)cc2N2C[C@@H]3C[C@@]2(CO)CN3)n1 [Example 57, N-(4-(4-Cyanopyridin-3-yl)-2-((1S,4S)-1-(hydroxymethyl)-2,5-diazabicyclo[2.2.1]heptan-2-yl)phenyl)-2-(2-fluoro-6-methoxyphenyl)pyrimidine-4-carboxamide] | < 100 nM
8 | COc1cccc(F)c1-c1nccc(C(=O)Nc2ccc(-c3cnccc3C#N)cc2N2CCN(C)CC2)n1 [Example 108, N-(4-(4-Cyanopyridin-3-yl)-2-(4-methylpiperazin-1-yl)phenyl)-2-(2-fluoro-6-methoxyphenyl)pyrimidine-4-carboxamide] | < 100 nM
9 | COc1cccc(F)c1-c1nccc(C(=O)Nc2ccc(-c3c(C)nn(C)c3C)cc2[C@H]2CC[C@@H](N)CC2)n1 [Example 84, N-(2-((cis)-4-Aminocyclohexyl)-4-(1,3,5-trimethyl-1H-pyrazol-4-yl)phenyl)-2-(2-fluoro-6-methoxyphenyl)pyrimidine-4-carboxamide] | < 100 nM
10 | COc1cccc(F)c1-c1nccc(C(=O)Nc2ccc(-c3cnccc3C#N)cc2N2C[C@]3(CO)C[C@H]2CN3C)n1 [Example 99, N-(4-(4-Cyanopyridin-3-yl)-2-((1S,4S)-4-(hydroxymethyl)-5-methyl-2,5-diazabicyclo [2.2.1]heptan-2-yl)phenyl)-2-(2-fluoro-6-methoxyphenyl)pyrimidine-4-carboxamide] | < 100 nM
11 | [2H]C([2H])([2H])Oc1ccc(F)c(F)c1-c1nccc(C(=O)Nc2ccc(-c3cnccc3C#N)cc2N2C[C@@H](N)C[C@H]2CO)n1 [Example 76, N-(2-((2S,4S)-4-Amino-2-(hydroxymethyl)pyrrolidin-1-yl)-4-(4-cyanopyridin-3-yl)phenyl)-2-(2,3-difluoro-6-(methoxy-d3)phenyl)pyrimidine-4-carboxamide] | < 100 nM
12 | COc1cccc(F)c1-c1nccc(C(=O)Nc2ccc(-c3cnccc3C#N)cc2N2CC[C@@H]2CN(C)C)n1 [Example 107, (R)-N-(4-(4-Cyanopyridin-3-yl)-2-(2-((dimethylamino)methyl)azetidin-1-yl)phenyl)-2-(2-fluoro-6-methoxyphenyl)pyrimidine-4-carboxamide] | < 100 nM
13 | COc1cccc(F)c1-c1nccc(C(=O)Nc2ccc(-c3cnccc3C#N)cc2N2C[C@@H](N)C[C@H]2C(C)(C)O)n1 [Example 54, N-(2-((2S,4S)-4-Amino-2-(2-hydroxypropan-2-yl)pyrrolidin-1-yl)-4-(4-cyanopyridin-3-yl)phenyl)-2-(2-fluoro-6-methoxyphenyl)pyrimidine-4-carboxamide] | < 100 nM

More lines, now with the values ahead:

Row | Ki | Structure (SMILES)
14 | < 100 nM | COc1cccc(F)c1-c1nccc(C(=O)Nc2cc(F)ccc2N2CCOCC2CO)n1 (centres unmarked) [Example 12, N-(5-Fluoro-2-(3-(hydroxymethyl)morpholino)phenyl)-2-(2-fluoro-6-methoxyphenyl)pyrimidine-4-carboxamide]
15 | < 100 nM | COc1cccc(F)c1-c1nccc(C(=O)Nc2ccccc2N2C[C@@H](N)C[C@H]2CO)n1 [Example 86, N-(2-((2S,4S)-4-Amino-2-(hydroxymethyl)pyrrolidin-1-yl)phenyl)-2-(2-fluoro-6-methoxyphenyl)pyrimidine-4-carboxamide]
16 | < 100 nM | COc1cc(C)cc(F)c1-c1nccc(C(=O)Nc2ccc(-c3cnccc3C#N)cc2N2C[C@@H](N)C[C@H]2CO)n1 [Example 70, N-(2-((2S,4S)-4-Amino-2-(hydroxymethyl)pyrrolidin-1-yl)-4-(4-cyanopyridin-3-yl)phenyl)-2-(2-fluoro-6-methoxy-4-methylphenyl)pyrimidine-4-carboxamide]
17 | < 100 nM | Cc1cccc(F)c1-c1nccc(C(=O)Nc2ccc(-c3cnccc3C#N)cc2N2C[C@@H](N)C[C@H]2CO)n1 [Example 63, N-(2-((2S,4S)-4-Amino-2-(hydroxymethyl)pyrrolidin-1-yl)-4-(4-cyanopyridin-3-yl)phenyl)-2-(2-fluoro-6-methylphenyl)pyrimidine-4-carboxamide]
18 | < 100 nM | COc1cccc(F)c1-c1nccc(C(=O)Nc2cc(F)ccc2N2CCNC[C@@H]2CO)n1 [Example 11, (R)-N-(5-Fluoro-2-(2-(hydroxymethyl)piperazin-1-yl)phenyl)-2-(2-fluoro-6-methoxyphenyl)pyrimidine-4-carboxamide]
19 | < 100 nM | [2H]C([2H])([2H])Oc1ccc(C)c(F)c1-c1nccc(C(=O)Nc2cc(F)ccc2N2C[C@@H](N)C[C@H]2CO)n1 [Example 69, N-(2-((2S,4S)-4-Amino-2-(hydroxymethyl)pyrrolidin-1-yl)-5-fluorophenyl)-2-(2-fluoro-6-(methoxy-d3)-3-methylphenyl)pyrimidine-4-carboxamide]
20 | < 100 nM | COc1cccc(F)c1-c1nccc(C(=O)Nc2cc(F)ccc2N2CCC[C@@H]2CN)n1 [Example 3, (R)-N-(2-(2-(Aminomethyl)pyrrolidin-1-yl)-5-fluorophenyl)-2-(2-fluoro-6-methoxyphenyl)pyrimidine-4-carboxamide]
21 | 500 to 5000 nM | COc1cccc(F)c1-c1nccc(C(=O)Nc2cc(F)ccc2N2CCCC2c2ccccn2)n1 (centres unmarked) [Example 8, N-(5-Fluoro-2-(2-(pytidin-2-yl)pyrrolidin-1-yl)phenyl)-2-(2-fluoro-6-methoxyphenyl)pyrimidine-4-carboxamide]
22 | < 100 nM | COc1ccc(N2C[C@H]3C[C@@H]2CN3)c(NC(=O)c2ccnc(-c3c(F)cccc3OC)n2)c1 [Example 35, N-(2-((1R,4R)-2,5-Diazabicyclo[2.2.1]heptan-2-yl)-5-methoxyphenyl)-2-(2-fluoro-6-methoxyphenyl)pyrimidine-4-carboxamide]
23 | < 100 nM | COc1ccc(F)c(F)c1-c1nccc(C(=O)Nc2ccc(-c3cnccc3C#N)cc2N2C[C@@H](N)C[C@H]2CO)n1 [Example 72, N-(2-((2S,4S)-4-Amino-2-(hydroxymethyl)pyrrolidin-1-yl)-4-(4-cyanopyridin-3-yl)phenyl)-2-(2,3-difluoro-6-methoxyphenyl)pyrimidine-4-carboxamide]
24 | < 100 nM | COc1cccc(F)c1-c1nccc(C(=O)Nc2ccc(C3CCOCC3)cc2N2C[C@@H](N)C[C@H]2CO)n1 [Example 90, N-(2-((2S,4S)-4-Amino-2-(hydroxymethyl)pyrrolidin-1-yl)-4-(tetrahydro-2H-pyran-4-yl)phenyl)-2-(2-fluoro-6-methoxyphenyl)pyrimidine-4-carboxamide]
25 | < 100 nM | COc1cccc(F)c1-c1cccc(C(=O)Nc2ccc(-c3cnccc3C#N)cc2N2C[C@@H](N)C[C@H]2CO)n1 [Example 59, N-(2-((2S,4S)-4-Amino-2-(hydroxymethyl)pyrrolidin-1-yl)-4-(4-cyanopyridin-3-yl)phenyl)-6-(2-fluoro-6-methoxyphenyl)picolinamide]
26 | < 100 nM | N[C@H]1C[C@@H](CO)N(c2ccc(F)cc2NC(=O)c2ccnc(-c3c(F)cccc3F)n2)C1 [Example 66, N-(2-((2S,4S)-4-Amino-2-(hydroxymethyl)pyrrolidin-1-yl)-5-fluorophenyl)-2-(2,6-difluorophenyl)pyrimidine-4-carboxamide]

From patent publication EP3755703B1, “N-(PHENYL)-2-(PHENYL)PYRIMIDINE-4-CARBOXAMIDE DERIVATIVES AND RELATED COMPOUNDS AS HPK1 INHIBITORS FOR TREATING CANCER” (Incyte Corporation, priority 2018, dated 2019)
